Measurements reported in paper PMC2481421, “Gene expression response in target organ and whole blood varies as a function of target organ injury phenotype” (Genome Biology, 2008).
Several values for one entry are separate records, joined by “and”; a condition that tells them apart may be missing. Equal entries are not always repeated. Entries after “also recorded” stand apart in the source; their conditions may differ.

How the values were obtained:
serum = experiment: Serum clinical chemistry (COBAS MIRA); format: in vivo, Male Fischer 344/N rats; details: rat, 15 mg/kg, 6 hours, animal 5
Method: (§1) Doses were determined with pilot experiments. […] Serum was collected for clinical chemistry.
At sacrifice, blood was collected in clotting tubes (BD Microtainer® Tubes, BD, Franklin Lakes, NJ, USA) and serum was separated. Clinical chemistry analysis was performed on all rats using a COBAS MIRA (Roche Diagnostics, Montclair, NJ, USA) using commercially available reagents from Equal Diagnostics (Exton, PA, USA) for the following assays: total protein, albumin, cholesterol, creatinine, direct bilirubin, total bilirubin, total bile acid, blood urea nitrogen and triglycerides. In addition, an enzymatic activity for the following proteins was measured: alanine aminotransferase, alkaline phosphatase, aspartate aminotransferase, lactate dehydrogenase, and sorbitol dehydrogenase. Additional data file 1 details the clinical chemistry value for each of these parameters for every animal.

whole blood = experiment: Hematology of whole blood (Technicon H*1, differential and reticulocyte counts); format: in vivo, Male Fischer 344/N rats; details: rat, 15 mg/kg, 6 hours, animal 5
Method: as §1
Blood was collected in EDTA tubes (BD Microtainer® Tubes). The samples were assayed using the Technicon H*1 hematology analyzer (Bayer Corporation, Tarrytown, NY, USA). The instrument performs white blood cell (WBC) counts by two independent methods. The values must have agreed within 10%. Manual counts and smear estimates were used to confirm values, when necessary. To monitor red blood cell (RBC) parameters, spun microhematocrits were performed for each specimen for comparison with the automated hematocrit (which is calculated from the directly measured RBCs and the mean cell volume). Control products were assayed after every tenth specimen. For WBC differential data, smears were Wright-Giemsa stained using an Ames Hema-Tek II automated slide stainer (Bayer Corporation, Ames Division, Elkhart, IN, USA) and manual WBC differential counts were performed on the first sample in each group. For reticulocyte counts, equal amounts of whole blood and New Methylene Blue stain were allowed to incubate at room temperature for at least 15 minutes. Smears were prepared and read to determine the percent reticulocytes per 1,000 RBCs. The percent value is multiplied by the RBC count to determine the absolute number of reticulocytes per microliter. Additional data file 1 details the values for each of these parameters for every animal.

[1] = In-life observations: body weight, gross findings before and at necropsy; format: in vivo, Male Fischer 344/N rats; details: gavage, corn oil, individual animals
Method: as §1

liver = experiment: Liver histopathology (H&E sections of left liver lobe, severity graded) after a single dose; details: for level of hepatocellular necrosis: medium dose, 6 hour
[2] = 150 mg/kg, 24 hours, listed as 1, 2-Dichlorobenzene
[3] = 150 mg/kg, 48 hours, listed as 1, 2-Dichlorobenzene
[4] = 1500 mg/kg, 24 hours, listed as 1, 2-Dichlorobenzene
[5] = 1500 mg/kg, 48 hours, listed as 1, 2-Dichlorobenzene
[6] = categorical score, rat, 15 mg/kg, 6 hours, animal 5
[7] = severity score, rat, 15 mg/kg, 6 hours, animal 5

Clc1ccccc1Cl [1,2-Dichlorobenzene]
ALP (serum): 269 U/L | ALT (serum): 54 U/L | AST (serum): 128 U/l | Alb (serum): 2.9 g/dL | BUN (serum): 20 mg/dL | CK (serum): 479 U/L | Chol (serum): 45 mg/dL | Crea (serum): 1 mg/dL | D.Bil (serum): 0.2 | LDH (serum): 454 U/L | SDH (serum): 5 U/L | T.Bil (serum): 0.9 | T.Protein (serum): 6.7 g/dL | Trig (serum): 195 mg/dL | % (Retic) (whole blood): 1.9% | Absolute Retic (whole blood): 0.1604 | Baso-phils (whole blood): 0.03 | Eosino-phils (whole blood): 0.06 | Hct (whole blood): 43.4% | Hgb 9g/dL0 (whole blood): 15 g/dL | LUCs (atyical) (whole blood): 0.04 | Lympho-cytes (whole blood): 2.84 | MCH (whole blood): 17.8 pg | MCV (whole blood): 51.4 fL | Mono-cytes (whole blood): 0.2 | Neuts (Segs) (whole blood): 1.59 | Platelets (whole blood): 601 1000/ul | RBC (whole blood): 8.44 mil/ul | Spun Hct (whole blood): 45% | WBC (whole blood): 4.77 1000/ul | Clin/Ob Prior to Necropsy ([1]; 15 mg/kg, 6 hours): Normal | Gross Findings ([1]; 15 mg/kg, 6 hours): No Gross Findings | Clin/Ob Prior to Necropsy ([1]; 15 mg/kg, 24 hours): normal | Gross Findings ([1]; 15 mg/kg, 24 hours): No Gross Findings | Final Body Wt. ([1]; 15 mg/kg, 24 hours, listed as 1, 2-Dichlorobenzene): 225.00 g and 229.20 g and 252.70 g and 262.00 g | Clin/Ob Prior to Necropsy ([1]; 15 mg/kg, 48 hours): normal | Gross Findings ([1]; 15 mg/kg, 48 hours): No Gross Findings | Final Body Wt. ([1]; 15 mg/kg, 48 hours, listed as 1, 2-Dichlorobenzene): 238.50 g and 244.20 g and 246.80 g and 250.10 g | Clin/Ob Prior to Necropsy ([1]; 150 mg/kg, 6 hours): Normal | Gross Findings ([1]; 150 mg/kg, 6 hours): No Gross Findings | Clin/Ob Prior to Necropsy [1, 2]: normal; also recorded: lethargic | Final Body Wt. [1, 2]: 217.90 g and 205.90 g and 233.30 g and 249.00 g | Gross Findings [1, 2]: No Gross Findings; also recorded: left & median liver lobe mottled; left dark on edges | Clin/Ob Prior to Necropsy ([1]; 150 mg/kg, 48 hours): normal | Final Body Wt. [1, 3]: 235.70 g and 244.20 g and 239.50 g and 241.90 g | Gross Findings [1, 3]: No Gross Findings; also recorded: left liver lobe rough surface | Clin/Ob Prior to Necropsy ([1]; 1500 mg/kg, 6 hours): Normal | Gross Findings ([1]; 1500 mg/kg, 6 hours): No Gross Findings | Clin/Ob Prior to Necropsy [1, 4]: lethargic; also recorded: normal | Final Body Wt. [1, 4]: 207.10 g and 207.70 g and 219.70 g and 225.00 g | Gross Findings [1, 4]: left & median liver lobes mottled; left dark on edges; also recorded: No Gross Findings; also recorded: left & median liver lobes mottled; median dark on edges | Clin/Ob Prior to Necropsy ([1]; 1500 mg/kg, 48 hours): lethargic | Final Body Wt. [1, 5]: 208.60 g and 211.10 g | Gross Findings [1, 5]: No Gross Findings; also recorded: left & median liver lobes rough surface | Inflammation (liver; [6]): 0 | Repair (liver; [6]): 0 | Response to Hepatocellular Injury (liver; [6]): 0 | level of hepatocellular necrosis (liver; animal 2): did not have any observable necrosis | level of hepatocellular necrosis (liver; animals 1, 3, and 4): minimal | Bile Duct Hyperplasia (liver; [7]): 0 | Cellular Infiltration, Mixed Cell (liver; [7]): 0 | Cellular Infiltration, Mononuclear Cell (liver; [7]): 0 | Cellular Infiltration, Neutrophil (liver; [7]): 0 | Centrilobular Cellular Infiltration, Mixed Cell (liver; [7]): 0 | Centrilobular Cellular Infiltration, Mononuclear Cell (liver; [7]): 0 | Centrilobular Cellular Infiltration, Neutrophil (liver; [7]): 0 | Centrilobular Hepatocyte Degeneration (liver; [7]): 0 | Centrilobular Hepatocyte Necrosis (liver; [7]): 0 | Centrilobular, Hepatocyte, Midzonal Degeneration (liver; [7]): 0 | Centrilobular, Hepatocyte, Midzonal Necrosis (liver; [7]): 0 | Congestion (liver; [7]): 0 | Depletion Glycogen (liver; [7]): 0 | Focal Hepatocyte Necrosis (liver; [7]): 0 | Hemorrhage (liver; [7]): 0 | Hepatocyte Apoptosis (liver; [7]): 0 | Hepatocyte Fatty Change (liver; [7]): 0 | Hepatocyte Hypertrophy (liver; [7]): 0 | Hepatocyte Necrosis (liver; [7]): 0 | Hepatocyte Regeneration (liver; [7]): 0 | Midzonal Centrilobular Cellular Infiltration, Mixed Cell (liver; [7]): 0 | Midzonal Centrilobular Cellular Infiltration, Neutrophil (liver; [7]): 0 | Midzonal Hepatocyte Necrosis (liver; [7]): 0 | Mitosis (liver; [7]): 0 | Portal Cellular Infiltration, Mixed Cell (liver; [7]): 0 | Portal Cellular Infiltration, Neutrophil (liver; [7]): 0
